# Counter-ions that a name gives are not always drawn.
# What was measured:
# [1] = tested on: human breast cancer cell (MCF-7); assay: cells; settings: for TGI MCF-7: 72 hours culture with compound, maximum concentration 10 μM; for GI50 / CC50: Homo sapiens, MCF7, 72 h; for GI50: read-out: GI50 MCF-7; for CC50: read-out: LC50 MCF-7
# Protocol: (§1) As positive control substances, 5-fluorouracil (5-FU, Sigma) and gemcitabine hydrochloride (Gemzar, GEM, Eli Lilly Japan K.K.), were tested. The experiment was carried out in accordance with the method carried out by the Commission of Screening for Carcinostatic Agents of the Ministry of Education, Culture, Sports, Science and Technology. With respect to each of experiment groups, the experiment was repeated nine times and an average value was determined. Specifically, each type of cultured cells were seeded into a 96-well microplate at a density of 1×10^4 cells per well (5.0×10^4 cells/mL, 200 μL), the cells were cultured under 5% CO2 at 37° C. for 24 hours, the culture medium was replaced by a culture medium containing the compound (180 μL, the maximum dose of each of the compound was 10 μM, and the final concentration of dimethylsulfoxide (DMSO, Sigma) was adjusted to 0.25%), and the culture was further continued under the same conditions for 72 hours. In this experiment, Dulbecco's modified Eagle's medium (D-MEM, Wako Pure Chemical Industries, Ltd.) was used for the culture of MIA PaCa-2, and Eagle's minimal essential medium (E-MEM, Wako Pure Chemical Industries, Ltd.) was used for the culture of MCF-7.
# (§2) After the completion of the culture, alamar blue (20 μL) (Iwaki Glass Co., Ltd.) was added to the culture medium, the resultant mixture was agitated, the culture was then carried out for 3 hours, and fluorescence values were determined on a fluorescence plate reader (Spectra Max M5 (Nihon Molecular Devices Corporation)) at an excitation wavelength of 530 nm and a fluorescence wavelength of 590 nm.
# (§3) The fluorescence values immediately before the action of each of the compounds were determined by replacing the culture medium, adding alamar blue (20 μL) immediately after the replacement of the culture medium, agitating the resultant mixture, carrying out the culture for 3 hours, and measuring the fluorescence values on a fluorescence plate reader.
# (§4) On the basis of the measurement values thus obtained, Tz (the state of the cultured cells immediately before the action of the compound), GI50 (the concentration of the compound required for inhibiting the proliferation of the cultured cells by 50% relative to the proliferation of the cultured cells in the presence of […]), TGI (the concentration of the compound required for inhibiting the proliferation of the cells in such a manner that the number of the cells became the same as Tz), LC50 (the concentration of the compound required for decreasing the number of the cells to 50% of Tz) and the proliferation rate (the rate of the proliferation of the cultured cells from the time pint of the action of the compound until the time point of the measurement of fluorescence) were determined.
# (§5) Due to the problem of the solubility of each of the compounds, the maximum concentration was set at 10 μM.
# [2] = tested on: human pancreatic cancer cell (MIA PaCa-2); assay: cells; settings: for TGI MIA PaCa-2: 72 hours culture with compound, maximum concentration 10 μM; for GI50: read-out: GI50 MIA PaCa-2; for proliferation rate: MIA PaCa-2, at a concentration of 10 μM
# Protocol: as §1, §2, §3, §4, §5
SMILES,cytotoxic or cell proliferation inhibition activity [1],TGI MCF-7 [1] [µM],GI50 [1] [µM],CC50 [1] [µM],cytotoxic or cell proliferation inhibition activity [2],TGI MIA PaCa-2 [2] [µM],"GI50 ([2]; Homo sapiens, MIA PaCa-2, 72 h) [µM]",concentration from which no increase in the activity was observed ([1]; MCF-7) [µM],"proliferation rate ([1]; MCF-7, at a concentration of 10 ηM) [%]",concentration from which no increase in the activity was observed ([2]; MIA PaCa-2) [µM],proliferation rate [2] [%],concentration at which a cytotoxic or cell proliferation inhibition activity was exhibited [1] [µM],"proliferation rate ([1]; MCF-7, at a concentration of 10 μM (the maximum dose)) [%]",concentration at which a cytotoxic or cell proliferation inhibition activity was exhibited [2] [µM],"CC50 ([2]; Homo sapiens, MIA PaCa-2, 72 h, read-out: LC50 MIA PaCa-2) [µM]"
"O=c1[nH]cc(F)c(=O)[nH]1 [5-FU, 5-fluorouracil]",did not exhibit either of these activities,>10,> 10,> 10,did not exhibit either of these activities,>10,> 10,,,,,,,,
"Nc1ccn([C@@H]2O[C@H](CO)[C@@H](O)C2(F)F)c(=O)n1 [GEM, gemcitabine hydrochloride]",did not exhibit either of these activities,>10,> 10,> 10,exhibited a cytotoxic or cell proliferation inhibition activity,>10,0.035,≥ 0.05,59.52,≥ 0.05,26.47,,,,
"COCCNS(=O)(=O)c1ccc(OC)c2oc(-c3csc(NC(=O)CCl)n3)cc12 [MU-1497, 2-chloro-N-{4-[7-methoxy-4-(2-methoxyethylsulfamoyl)-benzofuran-2-yl]-thiazol-2-yl}-acetamide]",,4.70,3.82,5.81,,6.15,4.22,,,,−95.39,≥ 5.0,−99.71,≥ 2.5,8.07
